The values that follow come from US7973079B2, “Methods and compounds for treating retinol-related diseases” (Revision Therapeutics, Inc., priority 2007, dated 2011).

One may read the inhibition as the relative decrease from the control value, in per cent. A higher inhibition goes with a response far below the control.

For series [1], the system named is panel of six cytochrome P450 isozymes. The series can be described thus: Cytochrome P450 inhibition profile (panel of six isozymes). It counts as in vitro ADME.
The next series deals with RBP4-TTR interaction (Homo sapiens, UniProt P02753). In words: High throughput in vitro assay detecting inhibition of RBP-TTR interaction. Type of series: binding. To be noted: Table 1, read-out: Apparent 50 IC. As for the experimental part:
In some embodiments, the modulators disclosed herein are also used in in vitro assays for detecting perturbations in RBP or TTR activity. For example, the modulator is added to a sample comprising RBP, TTR and retinol to detect complex disruption. A component, for example, RBP, TTR, retinol or the modulator, is labeled to determine if disruption of complex formation occurs. For example, complex formation and subsequent disruption is detected and/or measured through conventional means, such as the sandwich assays disclosed above. Other detection systems are also used to detect modulation of RBP or TTR binding, for example, FRET detection of RBP-TTR-retinol complex formation.
The optimal dose of compounds of Formula (I) or (II) to block formation of A2E in abca4-1 mice is determined using a standard dose escalation study. In order to determine the range of doses which will be employed, a high throughput, in vitro assay which detects modulators that inhibit RBP-TTR interaction has been developed. […] An illustrative in vivo approach, utilizing a compound having the structure of Formula (I) or (II) is presented below.

Another series has as its system RBP4+/+, ABCA4−/− mice. The series can be described thus: Serum retinol in HPR-treated mice compared with genetic reduction of RBP4. Type of series: in vivo. The following applies: HPR for a 28-day period, ABCA4+/− mice (>50% reduction). From the text:
FIG. 6. Genetic modulation of RBP4 in abca4 mutant mice: effects on serum retinol, RBP4 and toxic retinal fluorophores. A line of mice which expresses heterozygous mutations in RBP4 and ABCA4 (RBP4+/−, ABCA4+/−) was generated in order to determine if genetic reduction of RBP4 would be sufficient to reduce serum levels of retinol, RBP4 and toxic retinal fluorophores within the RPE. Serum retinol concentrations in RBP4+/−, ABCA4+/− mice were reduced by greater than 50% compared to mice with the normal complement of RBP (RBP4+/+, ABCA4−/−). […] Reductions in serum retinol correlated directly with reductions in RBP4, as determined by immunoblot analysis. Western blot identification of RBP4 in the various mouse lines is shown in panel B. Histological analysis were also performed. Tissue sections from RBP4+/+, ABCA4+/− mice (panel C), RBP4+/−, ABCA4+/− (panel D) and RBP4+/+, ABCA4+/+ (panel E) were analyzed by fluorescence microscopy.
Exploration of a non-pharmacological means of reducing lipofuscin fluorophores in order to validate our therapeutic approach based upon reduction of RBP levels in a patient will be performed. In this study, RBP protein levels will be reduced through genetic manipulation. Two new lines of mice expressing heterozygous mutations in retinol binding protein (RBP4) are generated. […]

Consider `CC(C)(C)c1cc(Cl)ccc1OCCCCC(=O)Nc1ccc(CC(=O)O)cc1` [2-(4-(5-(2-tert-butyl-4-chlorophenoxy)pentanamido)phenyl)acetic acid], for which the inhibition at 2 μM in series [1] is under 10%. Besides, the IC50 at RBP4-TTR interaction worked out at 1000 nM.
`CC(C)(C)c1cc(Cl)ccc1OCC1CCC(C(=O)Nc2ccc(O)cc2)C1` (centres unmarked) [3-((2-tert-butyl-4-chlorophenoxy)methyl)-N-(4-hydroxyphenyl)cyclopentanecarboxamide] showed an inhibition at 2 μM in series [1] of under 10%.
Compound `CC(C)(C)c1cc(Cl)ccc1OCC1CCCC(C(=O)O)C1` (centres unmarked) [3-((2-tert-butyl-4-chlorophenoxy)methyl)cyclohexanecarboxylic acid] displayed an inhibition at 2 μM in series [1] of under 10%. The IC50 at RBP4-TTR interaction turned out to be 160 nM.
`CC(C)(C)c1cc(Cl)ccc1OCC1CCC(C(=O)O)C1` (centres unmarked) [3-((2-tert-butyl-4-chlorophenoxy)methyl)cyclopentanecarboxylic acid] came in with an inhibition at 2 μM in series [1] of under 10%. The IC50 at RBP4-TTR interaction worked out at 400 nM.
In turn, `CC(C)(C)c1cc(Cl)ccc1OCCCC(=O)O` [4-(2-tert-butyl-4-chlorophenoxy)butanoic acid] displayed an inhibition at 2 μM in series [1] of about 15%. Besides, the IC50 on RBP4-TTR interaction amounted to 1000 nM.
As to `CC(C)(C)c1cc(Cl)ccc1OCC1CCC(C(=O)Nc2ccc(C(=O)O)cc2)C1` (centres unmarked) [4-(3-((2-tert-butyl-4-chlorophenoxy)methyl)cyclopentanamido)benzoic acid], in series [1], the inhibition at 2 μM was under 10%.
In series [1], `CC(C)(C)c1cc(Cl)ccc1OCCCCC(=O)Nc1ccc(C(=O)O)cc1` [4-(5-(2-tert-Butyl-4-chlorophenoxy)pentanamido)benzoic acid] returned an inhibition at 2 μM of under 10%.
In the case of `CC(C)(C)c1cc(Cl)ccc1OCCCCC(=O)Nc1ccc(O)cc1` [5-(2-tert-Butyl-4-chlorophenoxy)-N-(4-hydroxyphenyl)pentanamide], in series [1], the inhibition at 2 μM is about 50%. Further, on RBP4-TTR interaction, the IC50 came out at 1000 nM.
Taken in the same sequence, the figures for `CC(C)(C)c1cc(Cl)ccc1OCCCCC(=O)O` [5-(2-tert-Butyl-4-chlorophenoxy)pentanoic Acid] were at most 10% and 100 nM.
`CC(C)(C)c1cc(Cl)ccc1OCCCCCCC(=O)Nc1ccc(O)cc1` [7-(2-tert-butyl-4-chlorophenoxy)-N-(4-hydroxyphenyl)heptanamide]: the inhibition at 2 μM in series [1] was about 40%. The IC50 on RBP4-TTR interaction is 1000 nM.
Take `CC(C)(C)c1cc(Cl)ccc1OCCCCCCC(=O)O` [7-(2-tert-butyl-4-chlorophenoxy)heptanoic acid]: the inhibition at 2 μM in series [1] was about 15%. Further, on RBP4-TTR interaction, the IC50 turned out to be 500 nM.
Turning to `CC1=C(/C=C/C(C)=C/C=C/C(C)=C/C(=O)Nc2ccc(O)cc2)C(C)(C)CCC1` [HPR, fenretinide], the “degree of serum retinol reduction” value in the series on RBP4+/+, ABCA4−/− mice is reported as “comparable”.
